The record followed here is ChEMBL document CHEMBL3774349, “Thiazolo[4,5-d]pyrimidines as a privileged scaffold in drug discovery” (Eur J Med Chem, 2016).

Data set [1] in a line: Cytotoxicity against human MRC5 cells assessed as cell growth inhibition by aqueous non-Radioactivity Cell proliferation Assay. Type of data set: cell-based. The following applies: read-out: TC50 (the source's name).
The subject of a further data set is Human betaherpesvirus 5. As to the kind of experiment: Antiviral activity against Human cytomegalovirus Towne infected in HFF cells after 2 hrs by plaque reduction assay. Type of data set: functional, cell-based. The following applies: Human betaherpesvirus 5, Towne. (In a plaque reduction assay, fewer plaques than in the control indicate reduced infectivity or spread.)

Data set [2] can be described thus: Cytotoxicity against monkey Vero cells assessed as cell growth inhibition by aqueous non-Radioactivity Cell proliferation Assay. Type of data set: cell-based. The following applies: chlorocebus sabaeus, read-out: TC50 (the source's name).
Data set [3] can be described thus: Cytotoxicity against human KB cells assessed as cell growth inhibition by crystal violet staining based spectrophotometry. The following applies: read-out: TC50 (the source's name).
Data set [4] addresses T1, Corticotropin-releasing factor receptor 1 (Homo sapiens) (UniProt P34998).
T1 sequence (whole entry): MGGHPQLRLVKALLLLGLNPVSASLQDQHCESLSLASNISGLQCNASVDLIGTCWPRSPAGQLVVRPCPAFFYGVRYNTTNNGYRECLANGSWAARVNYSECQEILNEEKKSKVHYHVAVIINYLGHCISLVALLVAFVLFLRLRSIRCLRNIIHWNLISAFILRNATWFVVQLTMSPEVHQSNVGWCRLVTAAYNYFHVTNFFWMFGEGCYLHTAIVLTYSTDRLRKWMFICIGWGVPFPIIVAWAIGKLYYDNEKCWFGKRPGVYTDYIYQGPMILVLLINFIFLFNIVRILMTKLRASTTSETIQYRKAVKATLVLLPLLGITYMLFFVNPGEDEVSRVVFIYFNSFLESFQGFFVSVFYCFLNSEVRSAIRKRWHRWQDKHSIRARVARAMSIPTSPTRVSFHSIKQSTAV
As to the kind of experiment: Displacement of [125I]-Tyr0 sauvagine from human CRF1 receptor expressed in HEK293 cells membrane homogenates at 1000 nM for 120 mins by scintillation counting in the presence of antalarmin. Type of data set: cell membranes.

A further data set concerns Semliki Forest virus. As to the kind of experiment: Antiviral activity against Semliki forest virus infected in mouse. It is filed as functional.

Usually IC50 stands for the midpoint of a concentration-inhibition curve. As to `CC/C=C/Cn1c(=O)sc2c(=O)[nH]c(N)nc21`, the CC50 in data set [1], in data set [2] and in data set [3] was 75 µM in each case. Half-maximal inhibition in the data set on Human betaherpesvirus 5 (IC50) required 0.5 µM.

Take `CC(C)=CCn1c(=O)sc2c(=O)[nH]c(N)nc21`: the CC50 in data set [1], in data set [2] and in data set [3] was 75 µM throughout. The IC50 in the data set with Human betaherpesvirus 5 was determined as 6.8 µM.

For orientation: inhibition means the drop in the measured response relative to a control, in per cent. Take `CCOC(=O)/C(C#N)=C1/Sc2c(N(CCOC)CCOC)nc(C)nc2N1c1ccc(C(C)C)cc1Br`: the inhibition in data set [4] is 25%.

With `CCCN(CC1CC1)c1nc(C)nc2c1SC(=C(C#N)C#N)N2c1ccc(C(C)C)cc1Br`, the inhibition in data set [4] stood at 25%.

`Nc1nc(=O)c2sc(=O)n([C@@H]3O[C@H](CO)[C@@H](O)[C@H]3O)c2[nH]1` [ISATORIBINE] showed an Activity in the data set with Semliki Forest virus of 92%.
